In BindingDB's records for doi:10.1016/j.bmcl.2013.08.079 (Saint John'S University, 2013):

Target: Low molecular weight phosphotyrosine protein phosphatase (Homo sapiens) (UniProt P24666)
Assay: Noncompetitive inhibition of human GST-tagged LMW-PTP-B expressed in Escherichia coli JM 109 cells using p-nitrophenyl phosphate as substrate after 15 mins by microplate reader analysis

Low molecular weight phosphotyrosine protein phosphatase (Homo sapiens), sequence (P24666 whole entry, looked up): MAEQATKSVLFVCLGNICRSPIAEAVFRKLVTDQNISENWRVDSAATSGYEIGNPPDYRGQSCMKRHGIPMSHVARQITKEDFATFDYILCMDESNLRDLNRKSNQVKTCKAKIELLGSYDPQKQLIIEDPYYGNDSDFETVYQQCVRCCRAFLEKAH

| Ki | SMILES |
| --- | --- |
| 26 µM | O=C(O)c1nc2nc(Cl)c(Cl)nc2[nH]1 |
| 73.2 µM | CC(=O)Nc1c(C)cc(OCC(=O)O)cc1C |
